Biological target: T1, E. coli F1Fo ATP synthase (F1-ATPase) (Escherichia coli, UniProt P0ABA6+P0ABB0+P0ABB4)
T1 construct: gene atpD; with F1 alpha (atpA), gamma (atpG), delta and epsilon subunits; Fo (ab2c10–14) in the membrane preparation
Test: ATPase activity assay (liberated Pi) on purified F1 and F1Fo membranes; reversal by dilution or centrifuge column
Type: biochemical

## CC1=CC(=O)C(C(C)C)=CC1=O [TQ, thymoquinone]
  IC50: ~37 µM

Reference: article PMC4440651, “Thymoquinone Inhibits Escherichia coli ATP Synthase and Cell Growth” (PLoS ONE, 2015)
